Measured values published in patent publication US20210322582A1, “RADIOACTIVE IMIDAZOTHIADIAZOLE DERIVATIVE COMPOUND” (Nihon Medi-Physics Co., Ltd., priority 2018, published 2021).

Tested on: HT-29-transplanted tumor
Assay: Biodistribution of [^111In]ITDA3 in HT-29 cancer-bearing mouse
Format: in vivo
Settings: for Accumulation of radioactivity: Blood / Accumulation of radioactivity: Brain / Accumulation of radioactivity: HT-29 tumor / Accumulation of radioactivity: Heart / Accumulation of radioactivity: Intestines / Accumulation of radioactivity: Kidney / Accumulation of radioactivity: Liver / Accumulation of radioactivity: Lungs / Accumulation of radioactivity: Muscle / Accumulation of radioactivity: Pancreas / Accumulation of radioactivity: Spleen / Accumulation of radioactivity: Stomach / Tumor/blood / Tumor/muscle: HT-29 mouse
Experimental: HT-29 cells and MDA-MB-231 cells (5×10^6 cells/mouse) were subcutaneously inoculated into the left shoulders of 5-week old male BALB/c nude mice, respectively. A saline solution (100 μL) in which[^111In]ITDA3 (40 kBq) had been dissolved was administered to each of the cancer-bearing mice (n=5) via the tail vein. The HT-29 cancer-bearing mice were slaughtered after the lapse of 1, 4, and 24 hours from the administration, the MDA-MB-231 cancer-bearing mouse was slaughtered after the lapse of 24 hours from the administration, and the blood, spleen, pancreas, stomach, intestines, kidney, liver, heart, lungs, brain, HT-29 or MDA-MB-231-transplanted tumor, and muscle were recovered from each of the mice. The weight of each organ was measured, and the amount of radioactivity in each organ was measured by using a gamma counter. The accumulation of radioactivity in each organ except for stomach was expressed by % ID (injected dose)/g obtained by dividing the ratio of the amount of radioactivity of each organ to the administered amount of radioactivity by the organ weight. The stomach was expressed by % ID (injected dose).

## NS(=O)(=O)c1nn2cc(-c3ccc(NC(=O)CCC(C(=O)O)N4CCN(CC(=O)[O-])CCN(CC(=O)[O-])CCN(CC(=O)[O-])CC4)cc3)nc2s1.[111In+3] (centres unmarked) [[^111In]ITDA3]
1 hour after administration
  Accumulation of radioactivity: Blood: 0.09 ± 0.01 % ID/g
  Accumulation of radioactivity: Brain: 0.27 ± 0.05 % ID/g
  Accumulation of radioactivity: HT-29 tumor: 1.60 ± 0.16 % ID/g
  Accumulation of radioactivity: Heart: 6.91 ± 0.32 % ID/g
  Accumulation of radioactivity: Intestines: 8.33 ± 0.44 % ID/g
  Accumulation of radioactivity: Kidney: 95.81 ± 9.44 % ID/g
  Accumulation of radioactivity: Liver: 8.42 ± 1.42 % ID/g
  Accumulation of radioactivity: Lungs: 3.58 ± 0.86 % ID/g
  Accumulation of radioactivity: Muscle: 2.47 ± 0.45 % ID/g
  Accumulation of radioactivity: Pancreas: 14.89 ± 3.20 % ID/g
  Accumulation of radioactivity: Spleen: 0.13 ± 0.20 % ID/g
  Accumulation of radioactivity: Stomach: 1.80 ± 0.27 % ID
  Tumor/blood: 18.89 ± 2.68
  Tumor/muscle: 0.66 ± 0.09
4 hours after administration
  Accumulation of radioactivity: Blood: 0.06 ± 0.01 % ID/g
  Accumulation of radioactivity: Brain: 0.26 ± 0.04 % ID/g
  Accumulation of radioactivity: HT-29 tumor: 1.71 ± 0.28 % ID/g
  Accumulation of radioactivity: Heart: 2.87 ± 0.36 % ID/g
  Accumulation of radioactivity: Intestines: 7.2 ± 1.53 % ID/g
  Accumulation of radioactivity: Kidney: 80.09 ± 5.11 % ID/g
  Accumulation of radioactivity: Liver: 6.51 ± 1.50 % ID/g
  Accumulation of radioactivity: Lungs: 2.24 ± 0.44 % ID/g
  Accumulation of radioactivity: Muscle: 1.88 ± 0.13 % ID/g
  Accumulation of radioactivity: Pancreas: 6.2 ± 0.78 % ID/g
  Accumulation of radioactivity: Spleen: 0.04 ± 0.03 % ID/g
  Accumulation of radioactivity: Stomach: 0.83 ± 0.11 % ID
  Tumor/blood: 28.6 ± 3.24
  Tumor/muscle: 0.92 ± 0.15
24 hours after administration
  Accumulation of radioactivity: Blood: 0.06 ± 0.01 % ID/g
  Accumulation of radioactivity: Brain: 0.33 ± 0.07 % ID/g
  Accumulation of radioactivity: HT-29 tumor: 3.02 ± 0.37 % ID/g
  Accumulation of radioactivity: Heart: 2.00 ± 0.38 % ID/g
  Accumulation of radioactivity: Intestines: 11.11 ± 0.85 % ID/g
  Accumulation of radioactivity: Kidney: 70.19 ± 9.28 % ID/g
  Accumulation of radioactivity: Liver: 4.92 ± 1.01 % ID/g
  Accumulation of radioactivity: Lungs: 1.20 ± 0.15 % ID/g
  Accumulation of radioactivity: Muscle: 1.63 ± 0.79 % ID/g
  Accumulation of radioactivity: Pancreas: 3.85 ± 0.68 % ID/g
  Accumulation of radioactivity: Spleen: 0.08 ± 0.05 % ID/g
  Accumulation of radioactivity: Stomach: 0.48 ± 0.04 % ID
  Tumor/blood: 52.06 ± 6.11
  Tumor/muscle: 2.08 ± 0.67
From Table 5
  Amount of tumor accumulation compared with [^111In]ITDA1: lower than that of [^111In]ITDA1
  Amounts of accumulation in normal tissues (in particular, pancreas, stomach, intestines, and lungs): small
